Where two headings read alike, the source gives them in different places.
Assays:
[1] = Oral absorbability evaluation test of proanthocyanidins extracted from Boysenberry seed (LC/MS/MS of blood plasma); assay type: in vivo, Wistar rats; settings: Boysenberry seed (present invention); for B/A (blood concentration after 2 hours / administration quantity): A in mg/kg, B in μg/mL; for Blood concentration after 2 hours B: partitioned concentrate of seed extract 1000 mg/kg oral, Wistar rats, plasma
Method: The test animal used was Wistar rats (males, aged 9 weeks, with initial weight of 190 to 210 g, obtained from Japan SLC, Inc.). After fasting for 12 hours, the Wister rats were forcefully orally administered each 1000 mg/kg of the partitioned concentrate of seed extract or the partitioned concentrate of thermally-treated seed extract obtained in Example 1. Then, every 1, 2, 4, and 6 hours after the administration, the rats were killed to collect the whole blood. Each whole blood was centrifuged for 10 minutes at 4° C. at 2,000×g to obtain blood plasma as a supernatant. To 1 mL of each blood plasma were added 30 μL of 50% formic acid and 100 μL of 10 mM ascorbic acid solution to mix together, and to 1 mL of the mixed blood plasma solution were added 50 μL of (1 μg of) a catechol solution as an internal standard reagent and 30 μL of phosphoric acid to prepare each sample for analysis. Regarding the samples, measurements of a procyanidin dimer, a propelargonidin dimer, a procyanidin trimer, and a propelargonidin trimer were carried out at molecular weights of 577/289, 561/289, 865/289, and 849/289, using a liquid chromatography-mass spectrometry (LC/MS) (Shimadzu Prominence UFLC manufactured by Shimadzu Corp.; with ODS column; gradient elution with formic acid, methanol, and water) and MS/MS (API 3200 manufactured by Applied Biosystems Co. Ltd., negative-ion mode) to determine the quantities of the proanthocyanidins in the blood plasma. […] Additionally, FIG. 5 and Table 3 show LC/MS charts of the measurements of proanthocyanidin dimer and trimer components in the blood plasma after 2 hours of the administration of the partitioned concentrate of seed extract.

[2] = Literature oral absorption of apple procyanidins (J. Agric. Food Chem., 54, 884-892, 2006); assay type: in vivo, rats; settings: worked out from literature values, A in mg/kg
Source text: Studies on oral absorbability of various kinds of proanthocyanidins have reported that oligomers with a low degree of polymerization are efficiently orally absorbed (see R. R. Holt, S. A. Lazarus, M. C. Sullards, Q. Y. Zhu, D. D. Schramm, J. F. Hammerstone, C. G. Fraga, H. H. Schmitz and C. L. Keen, Procyanidin dimer B2 [epicatechin-(4β-8)-epicatechin] in human plasma after the consumption of a flavanol-rich cocoa. Am. J. Clin. Nutr. 2002, 76, p. 798-804. T. Shoji, S. Masumoto, N. Moriichi, H. Akiyama, T. Kanda, Y. Ohtake, Y. Goda. Apple procyanidin oligomers absorption in rats after oral administration: Analysis of procyanidins in plasma using the porter method and High-Performance Liquid Chromatography/Tandem Mass Spectrometry. J. Agric. Food Chem. 2006, 54, p. 884-892).

[3] = Apple, literature values; cited from earlier work

| SMILES | B/A (blood concentration after 2 hours / administration quantity) [1] | Blood concentration after 2 hours B [1] [ng/mL] | B/A (blood concentration after 2 hours / administration quantity) [2] | Blood concentration after 2 hours B [3] [ng/mL] |
| --- | --- | --- | --- | --- |
| Oc1cc(O)c2c(c1)O[C@H](c1ccc(O)c(O)c1)[C@@H](O)[C@@H]2c1c(O)cc(O)c2c1O[C@H](c1ccc(O)c(O)c1)[C@H](O)C2 [PC dimer B4, Procyanidin B4] | 32.9 (×10^−6) (kg/ml) | 560 | – | – |
| Oc1cc(O)c2c(c1)O[C@H](c1ccc(O)c(O)c1)[C@H](O)[C@H]2c1c(O)cc(O)c2c1O[C@H](c1ccc(O)c(O)c1)[C@H](O)C2 [PC dimer B2, epicatechin-(4β-8)-epicatechin] | – | – | 2.5 (×10^−6) (kg/ml) | 230 |
| Oc1cc(O)c2c(c1)O[C@H](c1ccc(O)c(O)c1)[C@H](O)[C@H]2c1c(O)cc(O)c2c1O[C@H](c1ccc(O)c(O)c1)[C@H](O)[C@H]2c1c(O)cc(O)c2c1O[C@H](c1ccc(O)c(O)c1)[C@H](O)C2 [PC trimer C1] | 25.0 (×10^−6) (kg/ml) | 200 | 1.9 (×10^−6) (kg/ml) | 120 |
| Oc1cc(O)c2c(c1)O[C@H](c1ccc(O)c(O)c1)[C@H](O)[C@H]2c1c(O)cc(O)c2c1O[C@H](c1ccc(O)c(O)c1)[C@@H](O)C2 [PC dimer B1] | – | – | 2.4 (×10^−6) (kg/ml) | 120 |
| Oc1cc(O)c2c(c1)O[C@H](c1ccc(O)c(O)c1)[C@@H](O)[C@@H]2c1c(O)cc(O)c2c1O[C@H](c1ccc(O)c(O)c1)[C@@H](O)C2 [PC dimer B3, Procyanidin B3] | 30.0 (×10^−6) (kg/ml) | 120 | – | – |

— patent US8859022B2, “Antihypertensive agents” (Bourbon Corporation, priority 2011, dated 2014)
